Source: patent US20240368173A1, “TRICYCLIC GPR65 MODULATORS” (PATHIOS THERAPEUTICS LIMITED, priority 2021, published 2024)
Like-named read-outs stand apart in the source and are kept apart here.

Target: human recombinant GPR65 (Homo sapiens, UniProt Q8IYL9)
Assay: Human GPR65 cAMP HTRF antagonist assay
Type: cell-based
Description: In one preferred embodiment, the compound prevents the increase in cytoplasmic cAMP levels expected following GPR65 activation at acidic pH. This prevention of cAMP accumulation in turn prevents downstream signalling through ICER, as described above. The “Human GPR65 cyclic adenosine monophosphate (cAMP) Homogeneous Time Resolved Fluorescence (HTRF) antagonist assay”, or simply “cAMP assay”, as described in the accompanying examples, can be used to measure the potency of GPR65 modulators, which is expressed as the concentration of compound required to reduce the increase in cAMP concentration upon GPR65 activation by 50% (i.e. an IC50).
Human GPR65 Cyclic Adenosine Monophosphate (cAMP) Homogeneous Time Resolved Fluorescence (HTRF) Antagonist Assay Procedure
IC50 data was obtained by the following procedure:
1321N1 human astrocytoma cells stably expressing human recombinant GPR65 (1321N1-hrGPR65 cells, EuroscreenFast) were cultured according to the vendor's instructions.
Compounds were tested for their ability to antagonise GPR65, through measuring the concentration of cytoplasmic cAMP following treatment of the cells at a pH of 7.2 to activate GPR65 signalling and addition of the compound to be tested. The extent to which the expected rise in cAMP concentration upon GPR65 activation was suppressed by the added compound is indicative of its potency. The assay was carried out according to EuroscreenFast assay Methodology as follows.
On the day of the assay, test compounds were added to 384-well, low volume, white microtiter plates by acoustic dispensing. KRH buffer (5 mM KCl, 1.25 mM MgSO4, 124 mM NaCl, 25 mM HEPES, 13.3 mM Glucose, 1.25 mM KH2PO4 and 1.45 mM CaCl2) was adjusted to pH 6.5, pH 7.6 and pH 8.4 by adding NaOH. 1321N1-hGPR65 cells were rapidly thawed and diluted in KRH, pH 7.6 prior to centrifugation at 300×g for 5 min and resuspension in assay buffer (KRH, pH 7.6, supplemented with 1 mM 3-isobutyl-1-methylxanthine (IBMX) and 200 μM ethylenediaminetetraacetic acid (EDTA)). Cells were added to assay plates at a density of 2,000 cells per well in a volume of 5 μl. Assay plates were briefly centrifuged at 100×g and then incubated at room temperature for 30 min. Cells were stimulated by the addition of 5 μL KRH, pH 6.5, to achieve an assay pH of 7.2, while control wells received 5 μl KRH, pH 8.4 to achieve an assay pH of 7.9. Assay plates were briefly centrifuged at 100×g and then incubated at room temperature for 30 min.
Accumulation of cAMP was detected by cAMP HTRF kit (Cisbio). d2-labeled cAMP and cryptate-labeled anti-cAMP antibody in Lysis and Detection Buffer (Cisbio) were added to assay plates, and the plates were incubated at room temperature for 1 h. HTRF measurements were performed using a Pherastar FSX instrument. Acceptor and donor emission signals were measured at 665 nm and 620 nm, respectively, and HTRF ratios were calculated as signal665 nm/signal620 nm×10^4. Data were normalised to high and low control values and fitted with 4-parameter logistic regression to determine hGPR65 IC50 values for the test compounds, which are shown in Table 1.

[1] = 1321N1-hrGPR65 cells, cAMP HTRF, assay pH 7.2, read-out: hGPR65 IC50 (Activity of selected compounds according to the invention)

human recombinant GPR65, sequence (Q8IYL9 whole entry): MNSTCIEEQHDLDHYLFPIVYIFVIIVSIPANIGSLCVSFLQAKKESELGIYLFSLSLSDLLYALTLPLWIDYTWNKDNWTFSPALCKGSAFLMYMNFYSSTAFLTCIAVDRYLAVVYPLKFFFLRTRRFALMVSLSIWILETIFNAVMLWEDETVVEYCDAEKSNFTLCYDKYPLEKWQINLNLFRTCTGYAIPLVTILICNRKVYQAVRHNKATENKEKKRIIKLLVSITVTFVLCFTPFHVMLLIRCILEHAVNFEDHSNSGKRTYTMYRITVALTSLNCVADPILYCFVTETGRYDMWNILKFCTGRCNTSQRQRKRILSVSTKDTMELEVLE

Compound | IC50 [nM] | IC50 [1] [nM]
O=C(Nc1cc(Cl)c(-c2ccc3nonc3c2)cc1F)N1[C@H]2CC[C@@H]1c1c[nH]c(=O)cc1C2 [Compound 167, (6S,9R)-N-(4-(Benzo[c][1,2,5]oxadiazol-5-yl)-5-chloro-2-fluorophenyl)-3-oxo-3,5,6,7,8,9-hexahydro-2H-6,9-epiminocyclohepta[c]pyridine-10-carboxamide] | < 500 | 
O=C(Nc1cc(Cl)c(-c2ccnc3[nH]ccc23)cc1F)N1[C@H]2CC[C@@H]1c1n[nH]c(=O)cc1C2 [Compound 148, (6S,9R)-N-(5-Chloro-2-fluoro-4-(1H-pyrrolo[2,3-b]345yridine-4-yl)phenyl)-3-oxo-3,5,6,7,8,9-hexahydro-2H-6,9-epiminocyclohepta[c]pyridazine-10-carboxamide] | 500 to 5000 | 
COc1cnc(F)c2c1[C@H]1CC[C@@H](C2)N1C(=O)Nc1cc(Cl)c(C(F)(F)F)cc1F [Compound 97, (5R,8S)-N-(5-Chloro-2-fluoro-4-(trifluoromethyl)phenyl)-1-fluoro-4-methoxy-6,7,8,9-tetrahydro-5H-5,8-epiminocyclohepta[c]pyridine-10-carboxamide] | < 500 | 
CS(=O)(=O)c1ccc(-c2cc(F)c(NC(=O)N3[C@H]4CC[C@@H]3c3n[nH]c(=O)cc3C4)cc2Cl)cc1F [Compound 132, (6S,9R)-N-(2-Chloro-3′,5-difluoro-4′-(methylsulfonyl)-[1,1′-biphenyl]-4-yl)-3-oxo-3,5,6,7,8,9-hexahydro-2H-6,9-epiminocyclohepta[c]pyridazine-10-carboxamide] | < 500 | 
O=C(Nc1cc(Cl)c(-c2ccnc(OCC(F)(F)F)c2)cc1F)N1[C@H]2CC[C@@H]1c1c[nH]c(=O)cc1C2 [Compound 309, (6S,9R)-N-(5-Chloro-2-fluoro-4-(2-(2,2,2-trifluoroethoxy)pyridin-4-yl)phenyl)-3-oxo-3,5,6,7,8,9-hexahydro-2H-6,9-epiminocyclohepta[c]pyridine-10-carboxamide] | < 500 | 
Cn1ncc2c(-c3cc(F)c(NC(=O)N4[C@H]5CC[C@@H]4c4n[nH]c(=O)cc4C5)cc3Cl)cccc21 [Compound 120, (6S,9R)-N-(5-Chloro-2-fluoro-4-(1-methyl-1H-indazol-4-yl)phenyl)-3-oxo-3,5,6,7,8,9-hexahydro-2H-6,9-epiminocyclohepta[c]pyridazine-10-carboxamide] | < 500 | 
O=C(Nc1ccc(C2CC2)c(Cl)c1)N1[C@H]2CC[C@@H]1c1ccnc(F)c1C2 [Compound 59, (5R,8S)-N-(3-Chloro-4-cyclopropylphenyl)-1-fluoro-6,7,8,9-tetrahydro-5H-5,8-epiminocyclohepta[c]pyridine-10-carboxamide] | < 500 | 
O=C(Nc1cc(Cl)c(-c2ccc(C(F)(F)F)nc2)cc1F)N1[C@H]2CC[C@@H]1c1n[nH]c(=O)cc1C2 [Compound 313, (6S,9R)-N-(5-Chloro-2-fluoro-4-(6-(trifluoromethyl)pyridin-3-yl)phenyl)-3-oxo-3,5,6,7,8,9-hexahydro-2H-6,9-epiminocyclohepta[c]pyridazine-10-carboxamide] | < 500 | 
O=C(Nc1cc(Cl)c(-c2ccncc2F)cc1F)N1[C@H]2CC[C@@H]1c1n[nH]c(=O)cc1C2 [Compound 138, (6S,9R)-N-(5-Chloro-2-fluoro-4-(3-fluoropyridin-4-yl)phenyl)-3-oxo-3,5,6,7,8,9-hexahydro-2H-6,9-epiminocyclohepta[c]pyridazine-10-carboxamide] | < 500 | 
O=C(Nc1cc(Cl)c(-c2ccc(OC3CC3)nc2)cc1F)N1[C@H]2CC[C@@H]1c1c[nH]c(=O)cc1C2 [Compound 222, (6S,9R)-N-(5-Chloro-4-(6-cyclopropoxypyridin-3-yl)-2-fluorophenyl)-3-oxo-3,5,6,7,8,9-hexahydro-2H-6,9-epiminocyclohepta[c]pyridine-10-carboxamide] | < 500 | 
O=C(Nc1cc(Cl)c(Cl)cc1F)N1C2CCC1c1ncc(=O)[nH]c1C2 (racemic) [Compound 158, (±)—N-(4,5-Dichloro-2-fluorophenyl)-2-oxo-2,5,6,7,8,9-hexahydro-1H-5,8-epiminocyclohepta[b]pyrazine-10-carboxamide] |  | > 5000
O=C(Nc1ccc(C(F)(F)F)c(Cl)c1)N1C2CCC1c1n[nH]c(=O)cc1C2 (racemic) [Compound 76, (±)-N-(3-Chloro-4-(trifluoromethyl)phenyl)-3-oxo-3,5,6,7,8,9-hexahydro-2H-6,9-epiminocyclohepta[c]pyridazine-10-carboxamide] | < 500 | 
O=C(Nc1cc(Cl)c(Cl)cc1F)N1[C@@H]2CC[C@H]1[C@@H](F)c1ccnc(F)c12 (racemic) [Compound 284, ±(5-endo)-N-(4,5-dichloro-2-fluorophenyl)-1,5-difluoro-6,7,8,9-tetrahydro-5H-6,9-epiminocyclohepta[c]pyridine-10-carboxamide] |  | 500 to 5000
O=C(Nc1ccc(Cl)c(Br)c1)N1[C@@H]2CC[C@H]1c1n[nH]c(=O)cc1C2 [Compound 50, (6R,9S)-N-(3-Bromo-4-chlorophenyl)-3-oxo-3,5,6,7,8,9-hexahydro-2H-6,9-epiminocyclohepta[c]pyridazine-10-carboxamide] |  | > 5000
O=C(Nc1cc(Cl)c(C(F)(F)F)cn1)N1C2CCC1c1n[nH]c(=O)cc1C2 (racemic) [Compound 12, (±)-N-(4-Chloro-5-(trifluoromethyl)pyridin-2-yl)-3-oxo-3,5,6,7,8,9-hexahydro-2H-6,9-epiminocyclohepta[c]pyridazine-10-carboxamide] |  | 500 to 5000
O=C(Nc1cc(Cl)c(-c2cnccn2)cc1F)N1[C@H]2CC[C@@H]1c1n[nH]c(=O)cc1C2 [Compound 271, (6S,9R)-N-(5-Chloro-2-fluoro-4-(pyrazin-2-yl)phenyl)-3-oxo-3,5,6,7,8,9-hexahydro-2H-6,9-epiminocyclohepta[c]pyridazine-10-carboxamide] |  | 500 to 5000
O=C(Nc1cc(Cl)c(-c2cn[nH]c2)cc1F)N1[C@H]2CC[C@@H]1c1n[nH]c(=O)cc1C2 [Compound 119, (6S,9R)-N-(5-Chloro-2-fluoro-4-(1H-pyrazol-4-yl)phenyl)-3-oxo-3,5,6,7,8,9-hexahydro-2H-6,9-epiminocyclohepta[c]pyridazine-10-carboxamide] |  | > 5000
O=C(Nc1cc(Cl)c(-c2ccc3csnc3c2)cc1F)N1[C@H]2CC[C@@H]1c1n[nH]c(=O)cc1C2 [Compound 270, (6S,9R)-N-(4-(Benzo[c]isothiazol-6-yl)-5-chloro-2-fluorophenyl)-3-oxo-3,5,6,7,8,9-hexahydro-2H-6,9-epiminocyclohepta[c]pyridazine-10-carboxamide] | < 500 | 
COc1ccc(-c2cc(F)c(NC(=O)N3[C@H]4CC[C@@H]3c3n[nH]c(=O)cc3C4)cc2F)cn1 [Compound 247, (6S,9R)-N-(2,5-Difluoro-4-(6-methoxypyridin-3-yl)phenyl)-3-oxo-3,5,6,7,8,9-hexahydro-2H-6,9-epiminocyclohepta[c]pyridazine-10-carboxamide] | < 500 | 
O=C(Nc1ccc(N2CC3CCC(C2)O3)cc1)N1[C@H]2CC[C@@H]1c1ccnc(F)c1C2 [Compound 62, (5R,8S)-N-(4-(8-Oxa-3-azabicyclo[3.2.1]octan-3-yl)phenyl)-1-fluoro-6,7,8,9-tetrahydro-5H-5,8-epiminocyclohepta[c]pyridine-10-carboxamide] |  | > 5000
CO[C@H]1CC[C@H](Oc2ccc(-c3cc(F)c(NC(=O)N4[C@H]5CC[C@@H]4c4n[nH]c(=O)cc4C5)cc3Cl)cn2)CC1 [Compound 337, (6S,9R)-N-(5-chloro-2-fluoro-4-(6-(((1r,4r)-4-methoxycyclohexyl)oxy)pyridin-3-yl)phenyl)-3-oxo-3,5,6,7,8,9-hexahydro-2H-6,9-epiminocyclohepta[c]pyridazine-10-carboxamide] | < 500 | 
Cc1n[nH]c(C)c1-c1cc(F)c(NC(=O)N2[C@H]3CC[C@@H]2c2n[nH]c(=O)cc2C3)cc1Cl [Compound 149, (6S,9R)-N-(5-Chloro-4-(3,5-dimethyl-1H-pyrazol-4-yl)-2-fluorophenyl)-3-oxo-3,5,6,7,8,9-hexahydro-2H-6,9-epiminocyclohepta[c]pyridazine-10-carboxamide] |  | 500 to 5000
